Measured values taken from patent publication US12479847B2 (DANA-FARBER CANCER INSTITUTE, INC., priority 2019, dated 2025).

Key:
Assay in all cases: KINOMEscan (ScanMAX) kinase profiling
Format in all cases: binding
panel of 468 kinases [1] = biological target: T1, panel of 468 kinases (Homo sapiens, UniProt Q56UN5); settings: YSK4; 1 μM; read-out: % control
T1 construct: purchased KINOMEscan (ScanMAX) service
T1 sequence (Q56UN5 1-1328): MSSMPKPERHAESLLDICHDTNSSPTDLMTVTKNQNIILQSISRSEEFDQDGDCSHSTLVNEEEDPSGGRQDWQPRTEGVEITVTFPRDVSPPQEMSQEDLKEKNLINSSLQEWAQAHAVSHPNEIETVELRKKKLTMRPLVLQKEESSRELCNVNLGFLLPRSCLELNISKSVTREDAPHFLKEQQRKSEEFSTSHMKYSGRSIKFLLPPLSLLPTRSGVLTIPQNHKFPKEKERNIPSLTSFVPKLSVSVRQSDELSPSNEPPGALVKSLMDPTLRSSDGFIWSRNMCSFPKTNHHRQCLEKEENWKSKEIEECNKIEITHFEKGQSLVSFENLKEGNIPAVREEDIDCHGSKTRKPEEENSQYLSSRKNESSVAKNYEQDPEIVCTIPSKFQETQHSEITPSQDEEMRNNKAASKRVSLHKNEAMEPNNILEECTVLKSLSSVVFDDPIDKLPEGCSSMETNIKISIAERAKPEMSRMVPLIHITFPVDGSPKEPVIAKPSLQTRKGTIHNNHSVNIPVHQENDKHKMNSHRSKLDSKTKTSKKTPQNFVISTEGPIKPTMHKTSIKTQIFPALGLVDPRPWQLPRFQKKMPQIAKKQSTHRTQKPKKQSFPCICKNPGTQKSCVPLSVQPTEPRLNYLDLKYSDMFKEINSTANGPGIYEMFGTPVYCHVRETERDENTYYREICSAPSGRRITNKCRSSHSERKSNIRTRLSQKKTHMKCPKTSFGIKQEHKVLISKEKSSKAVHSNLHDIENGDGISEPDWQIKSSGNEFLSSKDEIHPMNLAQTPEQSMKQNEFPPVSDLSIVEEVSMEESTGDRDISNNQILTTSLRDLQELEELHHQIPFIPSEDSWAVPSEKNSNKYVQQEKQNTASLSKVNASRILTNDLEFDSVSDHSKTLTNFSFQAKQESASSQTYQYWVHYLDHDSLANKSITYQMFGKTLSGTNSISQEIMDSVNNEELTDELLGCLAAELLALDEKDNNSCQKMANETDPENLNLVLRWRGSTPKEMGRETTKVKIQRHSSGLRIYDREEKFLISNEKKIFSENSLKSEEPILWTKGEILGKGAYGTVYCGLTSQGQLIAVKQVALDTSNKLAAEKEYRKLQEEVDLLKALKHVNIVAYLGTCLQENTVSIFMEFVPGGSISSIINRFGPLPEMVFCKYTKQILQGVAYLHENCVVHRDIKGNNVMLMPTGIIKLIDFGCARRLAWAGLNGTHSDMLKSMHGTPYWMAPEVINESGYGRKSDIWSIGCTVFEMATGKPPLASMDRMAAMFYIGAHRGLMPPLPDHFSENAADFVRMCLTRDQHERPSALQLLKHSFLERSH

panel of 468 kinases [2] = biological target: T2, panel of 468 kinases (Homo sapiens, UniProt Q9H0K1); settings: SIK2; 1 μM; read-out: % control
T2 construct: purchased KINOMEscan (ScanMAX) service
T2 sequence (Q9H0K1 whole entry): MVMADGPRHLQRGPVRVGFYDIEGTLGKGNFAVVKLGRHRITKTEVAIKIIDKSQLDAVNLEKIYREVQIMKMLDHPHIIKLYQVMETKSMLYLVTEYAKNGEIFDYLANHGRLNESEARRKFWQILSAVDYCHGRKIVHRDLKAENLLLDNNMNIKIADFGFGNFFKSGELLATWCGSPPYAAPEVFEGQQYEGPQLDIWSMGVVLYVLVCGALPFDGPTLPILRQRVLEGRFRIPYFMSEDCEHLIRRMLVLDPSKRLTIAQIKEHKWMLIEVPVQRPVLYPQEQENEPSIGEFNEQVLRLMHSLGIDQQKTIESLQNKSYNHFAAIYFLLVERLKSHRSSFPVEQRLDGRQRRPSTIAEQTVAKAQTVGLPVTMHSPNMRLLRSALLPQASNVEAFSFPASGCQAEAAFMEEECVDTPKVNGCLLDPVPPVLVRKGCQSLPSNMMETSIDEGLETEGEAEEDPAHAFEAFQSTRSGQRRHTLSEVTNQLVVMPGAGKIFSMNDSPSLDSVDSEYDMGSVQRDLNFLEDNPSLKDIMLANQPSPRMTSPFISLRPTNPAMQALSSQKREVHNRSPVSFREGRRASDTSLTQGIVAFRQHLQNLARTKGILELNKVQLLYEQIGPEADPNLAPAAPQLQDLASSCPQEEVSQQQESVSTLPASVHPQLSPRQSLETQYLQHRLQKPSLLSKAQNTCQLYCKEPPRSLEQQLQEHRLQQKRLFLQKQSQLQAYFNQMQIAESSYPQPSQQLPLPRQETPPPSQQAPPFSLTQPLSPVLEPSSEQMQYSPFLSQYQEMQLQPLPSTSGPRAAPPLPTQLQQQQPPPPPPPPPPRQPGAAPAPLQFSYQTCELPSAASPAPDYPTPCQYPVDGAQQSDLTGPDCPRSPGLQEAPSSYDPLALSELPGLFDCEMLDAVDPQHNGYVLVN

panel of 468 kinases [3] = biological target: T3, panel of 468 kinases (Homo sapiens, UniProt Q16620); settings: TRKB; 1 μM; read-out: % control
T3 construct: purchased KINOMEscan (ScanMAX) service
T3 sequence (Q16620 32-822): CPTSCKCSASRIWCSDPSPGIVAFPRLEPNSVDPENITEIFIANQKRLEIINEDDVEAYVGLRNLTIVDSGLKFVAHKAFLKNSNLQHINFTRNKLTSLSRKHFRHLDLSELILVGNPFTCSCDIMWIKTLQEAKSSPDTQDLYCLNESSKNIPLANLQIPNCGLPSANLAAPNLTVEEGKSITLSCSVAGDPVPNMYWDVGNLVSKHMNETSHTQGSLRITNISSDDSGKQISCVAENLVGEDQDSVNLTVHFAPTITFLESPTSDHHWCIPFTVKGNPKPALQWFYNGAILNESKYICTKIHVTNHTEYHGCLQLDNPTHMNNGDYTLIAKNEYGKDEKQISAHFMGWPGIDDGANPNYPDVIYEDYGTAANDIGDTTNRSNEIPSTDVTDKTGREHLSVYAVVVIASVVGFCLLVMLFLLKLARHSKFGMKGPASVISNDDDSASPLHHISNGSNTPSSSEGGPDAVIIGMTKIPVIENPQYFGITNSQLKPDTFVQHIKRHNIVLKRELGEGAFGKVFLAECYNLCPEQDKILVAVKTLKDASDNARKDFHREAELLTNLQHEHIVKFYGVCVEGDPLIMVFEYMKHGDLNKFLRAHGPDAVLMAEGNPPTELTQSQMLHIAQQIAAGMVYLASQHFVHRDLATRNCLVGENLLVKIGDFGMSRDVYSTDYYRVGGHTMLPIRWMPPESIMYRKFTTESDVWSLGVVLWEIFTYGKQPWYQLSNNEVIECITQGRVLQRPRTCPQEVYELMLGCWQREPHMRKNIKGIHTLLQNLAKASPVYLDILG

panel of 468 kinases [4] = biological target: T4, panel of 468 kinases (Homo sapiens, UniProt P36888, D835Y); settings: FLT3(D835Y); 1 μM; read-out: % control
T4 construct: purchased KINOMEscan (ScanMAX) service
T4 sequence (P36888 27-993 D835Y): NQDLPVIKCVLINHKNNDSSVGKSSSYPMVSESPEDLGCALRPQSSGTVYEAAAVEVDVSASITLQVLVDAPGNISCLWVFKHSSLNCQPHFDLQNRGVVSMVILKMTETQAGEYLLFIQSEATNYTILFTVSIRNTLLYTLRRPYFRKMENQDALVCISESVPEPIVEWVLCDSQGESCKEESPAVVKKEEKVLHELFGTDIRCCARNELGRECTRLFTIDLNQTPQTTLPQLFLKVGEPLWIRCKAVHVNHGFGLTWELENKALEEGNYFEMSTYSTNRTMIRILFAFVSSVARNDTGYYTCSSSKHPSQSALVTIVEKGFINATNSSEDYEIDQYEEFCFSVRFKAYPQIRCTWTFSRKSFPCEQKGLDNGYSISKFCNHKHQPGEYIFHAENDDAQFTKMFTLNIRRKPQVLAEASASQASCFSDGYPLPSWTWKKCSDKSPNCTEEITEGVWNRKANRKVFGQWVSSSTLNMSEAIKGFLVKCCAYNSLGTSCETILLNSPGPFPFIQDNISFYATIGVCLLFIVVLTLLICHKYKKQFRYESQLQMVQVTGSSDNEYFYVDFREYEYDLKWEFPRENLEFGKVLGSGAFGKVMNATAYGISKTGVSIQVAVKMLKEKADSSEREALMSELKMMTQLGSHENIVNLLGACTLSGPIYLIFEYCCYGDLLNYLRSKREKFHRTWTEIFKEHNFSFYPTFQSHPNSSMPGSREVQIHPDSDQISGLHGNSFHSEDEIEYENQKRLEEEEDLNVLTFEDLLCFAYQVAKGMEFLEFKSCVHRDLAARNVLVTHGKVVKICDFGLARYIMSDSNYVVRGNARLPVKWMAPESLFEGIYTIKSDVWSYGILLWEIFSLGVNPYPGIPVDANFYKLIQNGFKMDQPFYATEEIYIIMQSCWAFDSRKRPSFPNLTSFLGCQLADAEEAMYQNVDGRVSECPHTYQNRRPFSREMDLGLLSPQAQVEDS

CNc1nc(Nc2ccc(C(=O)N3CCC(N4CCOCC4)CC3)c3c2OCO3)nc2[nH]cc(Cl)c12 [Compound 75, (7-((5-chloro-4-(methylamino)-7H-pyrrolo[2,3-d]pyrimidin-2-yl)amino)benzo[d][1,3]dioxol-4-yl)(4-morpholinopiperidin-1-yl)methanone]
remaining binding at 1 µM (panel of 468 kinases [1]): 0.25%
remaining binding at 1 µM (panel of 468 kinases [2]): 100%
remaining binding at 1 µM (panel of 468 kinases [3]): 100%
remaining binding at 1 µM (panel of 468 kinases [4]): 14%

CNc1nc(Nc2ccc(S(=O)(=O)N3CCC(N4CCOCC4)CC3)cc2OC)nc2[nH]cc(Cl)c12 [Compound 12, 5-chloro-N2-(2-methoxy-4-((4-morpholinopiperidin-1-yl)sulfonyl)phenyl)-N4-methyl-7H-pyrrolo[2,3-d]pyrimidine-2,4-diamine]
remaining binding at 1 µM (panel of 468 kinases [1]): 59%
remaining binding at 1 µM (panel of 468 kinases [2]): 100%
remaining binding at 1 µM (panel of 468 kinases [3]): 100%
remaining binding at 1 µM (panel of 468 kinases [4]): 96%

CNc1nc(Nc2ccc(P3(=O)CCN(C4CCOCC4)CC3)cc2OC)nc2[nH]cc(Cl)c12 [Compound 77, 4-(4-((5-chloro-4-(methylamino)-7H-pyrrolo[2,3-d]pyrimidin-2-yl)amino)-3-methoxyphenyl)-1-(tetrahydro-2H-pyran-4-yl)-1,4-azaphosphinane 4-oxide]
remaining binding at 1 µM (panel of 468 kinases [1]): 4.2%
remaining binding at 1 µM (panel of 468 kinases [2]): 100%
remaining binding at 1 µM (panel of 468 kinases [3]): 100%
remaining binding at 1 µM (panel of 468 kinases [4]): 47%
